Legend:
[1] = biological target: T1, UndA (Pseudomonas putida, UniProt A5W7G6); assay: 1-undecene production, total turnover; type: biochemical; settings: optimal conditions of UndA; details in supplement
T1 sequence (A5W7G6 1-271): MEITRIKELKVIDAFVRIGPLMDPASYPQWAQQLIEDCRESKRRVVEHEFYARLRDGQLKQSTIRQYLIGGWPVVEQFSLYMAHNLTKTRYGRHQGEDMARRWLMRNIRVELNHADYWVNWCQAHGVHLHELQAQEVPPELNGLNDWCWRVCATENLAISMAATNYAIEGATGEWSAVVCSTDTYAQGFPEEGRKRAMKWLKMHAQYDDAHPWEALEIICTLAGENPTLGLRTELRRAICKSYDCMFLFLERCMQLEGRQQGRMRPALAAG

[2] = biological target: T2, OleT (Jeotgalicoccus sp. ATCC 8456, UniProt E9NSU2); assay: 1-undecene production, total turnover; type: biochemical; settings: CamAB redox partner system
T2 sequence (E9NSU2 1-422): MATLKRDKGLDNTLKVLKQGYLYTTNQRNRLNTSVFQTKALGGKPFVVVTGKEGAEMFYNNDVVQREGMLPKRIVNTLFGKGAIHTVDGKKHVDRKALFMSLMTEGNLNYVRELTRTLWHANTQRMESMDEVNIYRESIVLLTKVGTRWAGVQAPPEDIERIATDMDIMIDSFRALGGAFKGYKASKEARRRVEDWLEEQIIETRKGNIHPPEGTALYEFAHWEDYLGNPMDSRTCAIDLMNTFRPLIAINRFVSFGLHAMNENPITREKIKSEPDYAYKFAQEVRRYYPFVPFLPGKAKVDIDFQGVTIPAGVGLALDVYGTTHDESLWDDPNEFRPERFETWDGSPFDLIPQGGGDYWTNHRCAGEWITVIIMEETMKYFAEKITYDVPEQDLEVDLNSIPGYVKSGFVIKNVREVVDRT

CCCCCCCCCCCC(=O)O [compound 5, lauric acid]
1-undecene production, total turnover [1]: While UndA exhibited poor activity | 1-undecene production, total turnover [2]: UndB, OleT, and OleT-AldO showed substantial 1-undecene production (fig. S6)
